Data as given in PubChem BioAssay AID1845212 (Molecular Pharmacology Branch, DTP, NCI, 2023).
Several values for one entry are separate records, joined by “and”; a condition that tells them apart may be missing. Identical values can stand only once. One block for each molecule: values may come before it.

Tested on: NCI-H719 tumor spheroids, viability
Test: Anticancer human tumor NCI-H719 cell line growth inhibition;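 note: spheroids exposed to compounds for seven days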;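 for viability, T/C: percent viability relative to DMSO vehicle control as 100%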
Settings: spheroids with HUVEC and MSC; for viability, T/C: stronger effect = lower value
Outline: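 Single agents and combinations were tested on spheroids built from tumor cells plus HUVEC and hMSC, at half-log dilutions starting at or near clinical Cmax, else 10 microM; final DMSO 0.25% (v/v).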

Compound: Cc1sc2c(c1C)C(c1ccc(Cl)cc1)=NC(CC(=O)Nc1ccc(O)cc1)c1nnc(C)n1-2 (centres undefined) + CC[C@@]1(O)C(=O)OCc2c1cc1n(c2=O)Cc2cc3c(CN(C)C)c(O)ccc3nc2-1
IC50 (curve of first compound, second compound 0.003 µM): < 9.49 nM
IC50 (curve of first compound, second compound 0.00949 µM): < 9.49 nM
IC50 (curve of first compound, second compound 0.03 µM): < 9.49 nM
IC50 (curve of first compound, second compound 0.0949 µM): < 9.49 nM
IC50 (curve of first compound, second compound 0.3 µM): < 9.49 nM
viability, T/C (second compound 0.003 µM, first compound 0.00949 µM): 42.6%
viability, T/C (second compound 0.003 µM, first compound 0.03 µM): 31.5%
viability, T/C (second compound 0.003 µM, first compound 0.0949 µM): 9.86%
viability, T/C (second compound 0.003 µM, first compound 0.3 µM): 4.37%
viability, T/C (second compound 0.003 µM, first compound 0.949 µM): 2.57%
viability, T/C (second compound 0.003 µM, first compound 3 µM): 1.57%
viability, T/C (second compound 0.00949 µM, first compound 0.00949 µM): 5.64%
viability, T/C (second compound 0.00949 µM, first compound 0.03 µM): 5.14%
viability, T/C (second compound 0.00949 µM, first compound 0.0949 µM): 5%
viability, T/C (second compound 0.00949 µM, first compound 0.3 µM): 4.27%
viability, T/C (second compound 0.00949 µM, first compound 0.949 µM): 2.51%
viability, T/C (second compound 0.00949 µM, first compound 3 µM): 2.02%
viability, T/C (second compound 0.03 µM, first compound 0.00949 µM): 4.76%
viability, T/C (second compound 0.03 µM, first compound 0.03 µM): 4.99%
viability, T/C (second compound 0.03 µM, first compound 0.0949 µM): 4.72%
viability, T/C (second compound 0.03 µM, first compound 0.3 µM): 3.7%
viability, T/C (second compound 0.03 µM, first compound 0.949 µM): 2.76%
viability, T/C (second compound 0.03 µM, first compound 3 µM): 1.87%
viability, T/C (second compound 0.0949 µM, first compound 0.00949 µM): 4.97%
viability, T/C (second compound 0.0949 µM, first compound 0.03 µM): 4.42%
viability, T/C (second compound 0.0949 µM, first compound 0.0949 µM): 4.02%
viability, T/C (second compound 0.0949 µM, first compound 0.3 µM): 3.47%
viability, T/C (second compound 0.0949 µM, first compound 0.949 µM): 2.28%
viability, T/C (second compound 0.0949 µM, first compound 3 µM): 1.46%
viability, T/C (second compound 0.3 µM, first compound 0.00949 µM): 5.22%
viability, T/C (second compound 0.3 µM, first compound 0.03 µM): 4.7%
viability, T/C (second compound 0.3 µM, first compound 0.0949 µM): 3.68%
viability, T/C (second compound 0.3 µM, first compound 0.3 µM): 2.55%
viability, T/C (second compound 0.3 µM, first compound 0.949 µM): 1.67%
viability, T/C (second compound 0.3 µM, first compound 3 µM): 0.66%

IC50 (compound alone, run of 11/07/2019): < 3 nM and 3.17 nM
IC50 (compound alone, run of 12/16/2019): 3.67 nM and 3.31 nM and < 3 nM
Compound: CC[C@@]1(O)C(=O)OCc2c1cc1n(c2=O)Cc2cc3c(CN(C)C)c(O)ccc3nc2-1
viability, T/C (compound 0.003 µM): 44.5% [middle of 10 runs]
viability, T/C (compound 0.00949 µM): 6.14% [middle of 10 runs]
viability, T/C (compound 0.03 µM): 5.56% [middle of 10 runs]
viability, T/C (compound 0.0949 µM): 6.96% [middle of 10 runs]
viability, T/C (compound 0.3 µM): 7.47% [middle of 10 runs]

Compound: Cn1ncnc1[C@H]1c2n[nH]c(=O)c3cc(F)cc(c23)N[C@@H]1c1ccc(F)cc1
viability, T/C (compound 0.00949 µM): 14.8% and 59.6% and 24.1%
viability, T/C (compound 0.03 µM): 8.09% and 8.06% and 12.8%
viability, T/C (compound 0.0949 µM): 6.33% and 7.52% and 10%
viability, T/C (compound 0.3 µM): 6.84% and 6.92% and 9.12%
viability, T/C (compound 0.949 µM): 5.82% and 8.51% and 7.74%
viability, T/C (compound 3 µM): 6.37% and 7.94% and 7.04%
IC50 (curve of compound): < 9.49 nM and 11.8 nM
